# Experimental data as given in patent US8715653B2, “Modulation of Rhamm (CD168) for selective adipose tissue development” (The Regents of the University of California, priority 2006, dated 2014).
# “Also recorded” adds a separate entry of the source.
# Columns and labels:
# [1] = test system: uninjured skin of male Fisher rats; assay: Subcutaneous fat after injection in collagen solution under uninjured skin; assay type: in vivo; settings: uninjured rat skin, injected in type 1 collagen solution, harvested 4, 7 and 14 days after injection
# Method: 0.2 , 2 and 20 ug of hyaluronan binding peptide or scrambled peptide were mixed in 1 ml of type 1 collagen solution, (3 mg/m1) and 0.25 ml of the solution was injected under the skin on the flanks of 3 month old male Fisher rats. Hair at the site of injection was removed prior to injection using Nair for marking purposes. Injection sites were harvested by skin punches at 4, 7 and 14 days after injection.
# [2] = test system: rat excisional skin wounds; assay: Wound site (sub-cutaneous) adipogenesis in full thickness excisional wounds covered with collagen gel; assay type: in vivo; settings: for adipogenesis within the wound site: rat excisional wounds, peptide in collagen gel, 14 days after wounding, histology
# Method: FIG. 14. Effect of a hyaluronan binding peptide on wound site (sub-cutaneous) adipogenesis. A. Full thickness excisional wounds were placed on the flanks of male Fisher rats then these were covered with collagen gels (matrix) containing either no peptide (matrix), hyaluronan binding peptide (at 200, 20 and 2 ug/woundsite) or scrambled peptide (at 200 ug/woundsite). The wound sites were excised 14 days after wounding and processed for histology. Micrographs show Mason Trichrome stained tissue sections through the center of the wounds.
# Wt and Rh-/- mice (3-18 month old) or male Sprague-Dawley rats were anaesthetized by Halothane inhalation. Two full thickness wounds were placed on denuded back skin using a 4 mm metal punch. In the case of the rat experiments, 200 ul of a vitrogen solution (type 1 collagen solution that gels at 35-37C) containing no peptide, 2-200 μg hyaluronan binding peptide or scrambled peptide was used to cover the wounds. Animals were housed in individual cages for the experimental period. Wounds were harvested at varying times using a 8 mm metal punch from similar locations on the backs of mice of the same gender and age. Harvested wounds were fixed overnight in 4% paraformaldehyde and paraffin embedded as described in Tolg, C., et al. 2003. Genetic deletion of receptor for hyaluronan-mediated motility (Rhamm) attenuates the formation of aggressive fibromatosis (desmoid tumor). Oncogene 22:6873-6882;. Numbered serial sections were cut perpendicular to the wound edge starting at the wound center. The first and last sections were stained with Masson's trichrome and non-stained sections were used for immunohistochemistry. To ensure that serial sections were cut starting at the wound center, wound samples were cut in half through the wound center prior to embedding
# Wt fibroblasts [3] = assay: Disassembly of phalloidin-positive actin stress fibers in response to PDGF-BB; assay type: cell-based, mouse
# Description: (§1) Tissue sections were stained for collagen (Masson's trichrome), α-smooth muscle actin, vimentin and tenascin following manufacturer's recommendations. Staining was quantified after counter-staining with Harris Hematoxylin (EM SCIENCE) and mounting in Cytoseal 60 (Tullberg-Reinert, H., and Jundt, G. 1999. In situ measurement of collagen synthesis by human bone cells with a sirius red-based colorimetric microassay: effects of transforming growth factor beta2 and ascorbic acid 2-phosphate. Histochem Cell Biol 112:271-276). Immunofluorescence of phospho-ERK1,2 was done as previously published (49). For the detection of droplets of neutral lipids, paraformaldehyde-fixed cells were stained with BODIPY 493/503 (25 μg/ml) (Gocze, P. M., and Freeman, D. A. 1994. Factors underlying the variability of lipid droplet fluorescence in MA-10 Leydig tumor cells. Cytometry 17:151-158). Actin stress fibers were detected with Oregon-green phalloidin.
# (§2) Cell migration and invasion require the rapid assembly/disassembly of the actin cytoskeleton. Since intracellular Rhamm forms associate with the actin cytoskeleton and are required for v-src-mediated actin cytoskeleton disassembly, we compared the ability of Rh-/- fibroblasts with Rh^FL-rescued fibroblasts to disassemble phalloidin-positive actin stress fibers in response to PDGF-BB. […]
# Rh-/- fibroblasts [4] = assay: as above; assay type: cell-based, mouse
# Description: as §1, §2
# Wt fibroblasts [5] = assay: Random motility of fibroblasts by time-lapse cinemicrography; assay type: cell-based, mouse
# Method: (§3) Cell culture medium and culture conditions were described previously in Zhang, S., Chang, M. C., Zylka, D., Turley, S., Harrison, R., and Turley, E. A. 1998. The hyaluronan receptor RHAMM regulates extracellular-regulated kinase. J Biol Chem 273:11342-11348; and Tolg, C., et al. 2003. Genetic deletion of receptor for hyaluronan-mediated motility (Rhamm) attenuates the formation of aggressive fibromatosis (desmoid tumor). Oncogene 22:6873-6882. PDGF-BB (25 ng/ml), HA (500 ng/ml-1 mg/ml) or FCS (10%) were added to 24 hrs serum-starved, 50% sub-confluent fibroblasts on fibronectin (25 μg/ml)-coated dishes (Zhang, S., Chang, M. C., Zylka, D., Turley, S., Harrison, R., and Turley, E. A. 1998. The hyaluronan receptor RHAMM regulates extracellular-regulated kinase. J Biol Chem 273:11342-11348; Hall, C. L., Lange, L. A., Prober, D. A., Zhang, S., and Turley, E. A. 1996. pp60(c-src) is required for cell locomotion regulated by the hyaluronanreceptor RHAMM. Oncogene 13:2213-2224). […]
# (§4) For experiments assessing the motogenic effects of HA and PDGF-BB, cells were plated onto fibronectin-coated tissue culture flasks at 50% sub-confluence overnight then serum-starved for 24 hrs. […] For quantifying the effect of FCS, fibroblasts were plated at 50% sub-confluence overnight onto tissue culture dishes that had been pre-coated with serum proteins. […]
# (§5) Efficient repair of excisional wounds also depends upon motility speed in response to motogens present in the microenvironment (See Ridley, A. J., Schwartz, M. A., Burridge, K., Firtel, R. A., Ginsberg, M. H., Borisy, G., Parsons, J. T., and Horwitz, A. R. 2003. Cell migration: integrating signals from front to back. Science 302:1704-1709). The velocity of migration stimulated by HA (FIG. 6A) or FCS (FIGS. 9A, 9B) was assessed directly using time-lapse cinemicrography of cells cultured on fibronectin-coated 2D tissue culture surfaces (Hall, C. L., Lange, L. A., Prober, D. A., Zhang, S., and Turley, E. A. 1996. pp60(c-src) is required for cell locomotion regulated by the hyaluronanreceptor RHAMM. Oncogene 13:2213-2224). […]
# Rh-/- fibroblasts [6] = assay: as above; assay type: cell-based, mouse
# Method: as §3, §4, §5
# [7] = listed as Hyaluronan binding peptides
Compound,subcutaneous fat / accumulation of adipocytes at injection site [1],"subcutaneous fat / accumulation of adipocytes at injection site [1, 7]",concentrations that increase subcutaneous adipogenesis ([2]; rat excisional skin wounds),adipogenesis within the wound site [2],"adipogenesis within the wound site [2, 7]",effect on actin disassembly in response to PDGF-BB (Wt fibroblasts [3]),effect on actin disassembly in response to PDGF-BB (Rh-/- fibroblasts [4]),"effect on motility in response to PDGF-BB (Wt fibroblasts [5]; Wt fibroblasts, PDGF-BB)","effect on random motility in the presence of FCS (Wt fibroblasts [5]; primary Wt fibroblasts, FCS)",effect on motility in response to PDGF-BB (Rh-/- fibroblasts [6])
STMMRSHKTRSHHV (Hyaluronan binding peptide.),increases subcutaneous fat,promoted adipogenesis,20-200 μg/wound site,filled with adipocytes,promoted adipogenesis; also recorded: increase subcutaneous adipogenesis,,,,,
COc1cccc(-c2cc(=O)c3ccccc3o2)c1N [PD98059],,,,,,significantly inhibit,no effect,significantly inhibit,significantly reduce motility,no effect
